Columns and labels:
[1] = test system: Wistar, adult, male, rats; assay: pilocarpine model of epilepsy: video monitoring of spontaneous epileptic seizures after status epilepticus; type: in vivo
Source text: The current invention was based on an experimental model of epilepsy in which in rats the induction of a brain lesion is accomplished through the administration of pilocarpine, a cholinergic agonist. According to the original description of this model, approximately 20-30 days after pilocarpine injection in either rats or mice, there is the onset of spontaneous recurrent epileptic seizures (Turski WA, Cavalheiro EA, Schwarz M, Czuczwar SJ, Kleinrok Z and Turski L. Limbic seizures produced by pilocarpine in rats: behavioural, electroencephalographic and neuropathological study. Behavioral Brain Research, 9:315-335, 1983; Mello LEAM, Cavalheiro EA, Babb TL, Kupfer WR, Pretorius JK, Tan AM and Finch. DM. Circuit mechanisms of seizures in the pilocarpine model of chronic epilepsy: cell loss and mossy fiber sprouting. Epilepsia 34:985-995, 1993). Due to its special features the pilocarpine model is currently one of the 3 most widely used experimental models in the study of epilepsy.
(§1) Biperiden, together with atropine, is a classic cholinergic antagonist and is known to block muscarinic receptors. These drugs are known by their abilities in blocking the cholinergic transmission which is otherwise mediated through muscarinic receptors. For our experiments we used Wistar, adult, male, rats which were maintained under controled conditions of temperature, light/dark cylces and kept in groups of up to 6 animals in polypropilene boxes with free access to tap water and rat chow pellets. Rats were subject to the intraperitoneal administration of pilocarpine in a dose of 320 mg/Kg for the induction of status epilepticus.
As expected, the systemic administration of pilocarpine lead to a sequence of behavioral alterations such as akinesia, body tremor and/or myoclonic jerks of the head and oro-facial stereotyped movements accompained by profuse salivation. Status epilepticus, a condition of uninterrupt epileptic seizure, developed on average 19 ± 5 min after the injetion of pilocarpine. Three hours after the onset of status epilepticus the animals in the experimental group (n=10) were intraperitoneally injected with the first initial dose of biperiden (8 mg/kg). This dose represents the concentration needed to provoke memory impairments in rodents (Roldan G, Bolanos-Badillo E, Gonzales-Sanches H, Quirarte GL and Prado-Alcala RA JW. Selective M1 muscarinic receptor antagonists disrupt memory consolidation of inhibitory avoidance in rats. Neurosci. Lett., 230:93-6, 1997).
For the animals in the control group (n=6), […] after the onset of status epileticus, administration of sterile saline solution (0.9% NaCl), rather than biperiden, was started with a similar protocol.
In the pilocarpine model of epilepsy, a few weeks after the administration of pilocarpine and the induction of status epilepticus, the animals develop spontaneous epileptic seizures which reccur for as long as the animal are allowed to live. […]
Approximately 15 to 20 days after the induction of status epilepticus, the reported duration of the latent period for the onset of spontaneous seizures, monitoring of the behavioral seizures with a videocamera for approximately 12 hours/week was initiated. […] Animals were video monitored for approximately 120 days after the induction of status epilepticus. The recorded video tapes were routinelly assessed in a 29 inches wide television screen and the seizures observed for each animal were recorded.

[2] = test system: Wistar, adult, male, rats; assay: induction of status epilepticus by systemic pilocarpine; type: in vivo; settings: pilocarpine 320 mg/Kg intraperitoneal, average
Source text: as §1
As expected, the systemic administration of pilocarpine lead to a sequence of behavioral alterations such as akinesia, body tremor and/or myoclonic jerks of the head and oro-facial stereotyped movements accompained by profuse salivation. Status epilepticus, a condition of uninterrupt epileptic seizure, developed on average 19 ± 5 min after the injetion of pilocarpine. Three hours after the onset of status epilepticus the animals in the experimental group (n=10) were intraperitoneally injected with the first initial dose of biperiden (8 mg/kg). […]

Row | Structure (SMILES) | qualitative or quantitative nature of each individual seizure, biperiden-treated vs control group ([1]; comparison between the two groups) | onset of spontaneous recurrent seizures after prophylactic use following pilocarpine lesion ([1]; prophylactic use after pilocarpine lesion, vs animals not treated with biperiden) | mean frequency of spontaneous epileptic seizures, control group relative to experimental group (treated with biperiden) ([1]; ratio control / biperiden-treated group, Table 2) | Spontaneous seizures/h ([1]; rats, pilocarpine 320 mg/Kg i.p., biperiden 8 mg/kg i.p. every 8 hours for 10 days, n=10, video monitored about 120 days, mean ± standard deviation, p < 0.02 vs control (0.0401 ± 0.0113)) | Latency (weeks): length of the latent period for the onset of the first recorded spontaneous epileptic seizure ([1]; rats, pilocarpine 320 mg/Kg i.p., biperiden 8 mg/kg i.p. starting 3 h after onset of status epilepticus, every 8 hours for 10 days, n=10, mean ± standard deviation, p < 0.03 vs control (3.2 ± 1.1)) | time to development of status epilepticus after the injection of pilocarpine [2]
1 | OC(CCN1CCCCC1)(c1ccccc1)C1CC2C=CC1C2 (stereo not drawn) [biperiden] | no differences | significantly retarded or even supressed the onset of spontaneous recurrent seizures | 2 times higher | 0.0202 ± 0.0047 seizures/h | 6.0 ± 1.1 weeks | 
2 | CC[C@@H]1C(=O)OC[C@@H]1Cc1cncn1C [pilocarpine] |  |  |  |  |  | 19 ± 5 min

— patent publication EP1599197B1, “THE USE OF ANTIMUSCARINIC DRUGS” (FAPESP-Fundacao de Amparo a Pesquisa do Estado de SP, priority 2003, dated 2004)
